Source: patent US9107411B2, “Indolecarboxamides and benzimidazolecarboxamides as insecticides and acaricides” (BAYER INTELLECTUAL PROPERTY GMBH, priority 2011, dated 2015)
Where two headings read alike, the source gives them in different places.

Legend:
Phaedon cochleariae = assay: Phaedon test (PHAECO spray treatment); format: in vivo; details: application rate 100 g/ha, Chinese cabbage leaf discs, after 7 days; for pest or weed control at 100 g/ha: Phaedon cochleariae, foliar, 168 h, read-out: efficacy in %
Procedure: Phaedon Test ([…] Spray Treatment) Solvent: 78.0 parts by weight of acetone • • 1.5 parts by weight of dimethylformamide Emulsifier: 0.5 part by weight of alkylaryl polyglycol ether To produce an appropriate active ingredient formulation, 1 part by weight of active ingredient is mixed with the stated amounts of solvent and emulsifier, and the concentrate is diluted with emulsifier-containing water to the desired concentration. Leaf discs of Chinese cabbage (Brassica pekinensis) are sprayed with an active ingredient formulation of the desired concentration and, after drying, populated with larvae of the mustard beetle (Phaedon cochleariae). After 7 days, the efficacy in % is determined. 100% means that all of the beetle larvae have been killed; 0% means that none of the beetle larvae have been killed.

Spodoptera frugiperda = Spodoptera frugiperda test (SPODFR spray treatment); format: in vivo; details: application rate 100 g/ha; maize leaf discs; after 7 days
Procedure: Spodoptera frugiperda Test (SPODFR Spray Treatment) Solvent: 78.0 parts by weight of acetone • • 1.5 parts by weight of dimethylformamide To produce an appropriate active ingredient formulation, 1 part by weight of active ingredient is mixed with the stated amounts of solvent and emulsifier, and the concentrate is diluted with emulsifier-containing water to the desired concentration. Leaf discs of maize (Zea mays) are sprayed with an active ingredient formulation of the desired concentration and, after drying, populated with caterpillars of the armyworm (Spodoptera frugiperda). After 7 days, the efficacy in % is determined 100% means that all of the caterpillars have been killed; 0% means that none of the caterpillars have been killed.

logP (HPLC-MS) = format: physicochemical
Lucilia cuprina larvae = assay: Lucilia cuprina test (LUCICU); format: in vivo; details: application rate 100 ppm; treated horse meat; after 2 days
Procedure: Lucilia cuprina Test (LUCICU) Solvent: dimethyl sulphoxide To prepare an appropriate active ingredient formulation, 10 mg of active ingredient are mixed with 0.5 ml of dimethyl sulphoxide and the concentrate is diluted with water to the desired concentration. Vessels containing horse meat treated with the active ingredient formulation of the desired concentration are populated with about 20 Lucilia cuprina larvae. After 2 days, the kill in % is determined. 100% means that all of the larvae have been killed; 0% means that none of the larvae have been killed.

Boophilus microplus = Boophilus microplus test (BOOPMI injection); format: in vivo; details: application rate 20 μg/animal; injected into the abdomen; after 7 days
Procedure: Boophilus microplus Test (BOOPMI Injection) Solvent: dimethyl sulphoxide To prepare an appropriate active ingredient formulation, 10 mg of active ingredient are mixed with 0.5 ml of solvent and the concentrate is diluted with solvent to the desired concentration. The active ingredient solution is injected into the abdomen (Boophilus microplus), and the animals are transferred into dishes and stored in a climate-controlled room. After 7 days, the efficacy in % is determined. The activity is assessed by laying of fertile eggs. 100% means that none of the ticks has laid any fertile eggs.

Ctenocephalides felis = Ctenocephalides felis oral (CTECFE); format: in vivo; details: application rate 100 ppm in citrated cattle blood; after 2 days
Procedure: Ctenocephalides felis Oral ([…]) Solvent: 1 part by weight of dimethyl sulphoxide For the purpose of preparing an appropriate active ingredient formulation, 10 mg of active ingredient are mixed with 0.5 ml of dimethyl sulphoxide. A portion of the concentrate is diluted with citrated cattle blood, and the desired concentration is prepared. About 20 unfed adult fleas (Ctenocephalides felis) are placed into a chamber which is closed at the top and bottom with gauze. A metal cylinder whose bottom end is closed with Parafilm is placed onto the chamber. The cylinder contains the blood/active ingredient formulation, which can be imbibed by the fleas through the Parafilm membrane. After 2 days, the kill in % is determined 100% means that all of the fleas have been killed; 0% means that none of the fleas have been killed.

Tetranychus urticae = assay: Tetranychus test, OP-resistant (TETRUR spray treatment); format: in vivo; details: bean leaf discs, after 6 days
Procedure: Tetranychus Test, OP-Resistant (TETRUR Spray Treatment)
Solvent: 78.0 parts by weight of acetone • • 1.5 parts by weight of dimethylformamide
Emulgator: 0.5 part by weight of alkylaryl polyglycol ether
To produce an appropriate active ingredient formulation, 1 part by weight of active ingredient is mixed with the stated amounts of solvent and emulsifier, and the concentrate is diluted with emulsifier-containing water to the desired concentration.
Discs of bean leaves (Phaseolus vulgaris) infested by all stages of the red spider mite (Tetranychus urticae) are sprayed with an active ingredient formulation of the desired concentration.
After 6 days, the efficacy in % is determined. 100% means that all of the spider mites have been killed; 0% means that none of the spider mites have been killed.

[1] = HPLC, reversed-phase column (C18), acidic range pH 2.7, acetonitrile (0.1% formic acid)/water gradient, 43° C., calibration with unbranched alkan-2-ones
[2] = HPLC, reversed-phase column (C18), 43° C., acidic range pH 2.7, EEC directive 79/831 Annex V.A8, two values = both regioisomers (G = N), read-out: log p
[3] = HPLC, reversed-phase column (C18), 43° C., acidic range pH 2.7, EEC directive 79/831 Annex V.A8, two values = both regioisomers (G = N)

SMILES | efficacy in % (Phaedon cochleariae) [%] | efficacy in % (Spodoptera frugiperda) [%] | log p (logP (HPLC-MS); [1]) | efficacy (kill in %) (Lucilia cuprina larvae) [%] | efficacy (laying of fertile eggs) (Boophilus microplus) [%] | efficacy (kill in %) (Ctenocephalides felis) [%] | efficacy in % (Tetranychus urticae; application rate 100 g/ha) [%] | pest or weed control at 100 g/ha (Phaedon cochleariae) [%] | chromatographic logP (logP (HPLC-MS); [2]) | chromatographic logP (logP (HPLC-MS); HPLC-MS) | log p (logP (HPLC-MS); [3]) | efficacy in % (Tetranychus urticae; application rate 500 g/ha) [%]
CCn1c(C(=O)NC(c2cccc(C(F)(F)F)c2)C(F)(F)F)cc2cc(C(=O)NC(C)CF)c(Cl)cc21 (stereo not shown) [Compound 8] | 100 | 100 | 3.88 | 100 | 100 | 95 |  |  |  |  |  | 
CCn1c(C(=O)NC(c2cccc(C(F)(F)F)c2)C(F)(F)F)cc2cc(C(=O)NC(CF)CF)c(Cl)cc21 (stereo not shown) [Compound 11] | 100 |  | 3.86 | 100 | 100 | 80 |  |  |  |  |  | 
C#CC1(NC(=O)c2cc3cc(C(=O)NC(c4cccc(C(F)(F)F)c4)C(F)(F)F)n(CC)c3cc2Cl)CC1 (stereo not shown) [Compound 32] | 100 |  | 3.86 | 100 | 100 | 100 | 100 |  |  |  |  | 
CCn1c(C(=O)NC(c2cccc(Br)c2)C(F)(F)F)cc2cc(C(=O)NC3(C#N)CC3)c(Cl)cc21 (stereo not shown) [Compound 41] |  | 100 | 3.75 | 100 | 100 | 100 | 100 |  |  |  |  | 
C#CCn1c(C(=O)NC(c2cc(Cl)c(Cl)c(Cl)c2)C(F)(F)F)cc2cc(C(=O)NC3(C#N)CC3)c(Cl)cc21 (stereo not shown) [Compound 277] | 100 | 100 | 4.24 |  |  |  | 90 |  |  |  |  | 
C#CCn1c(C(=O)NC(c2cccc(OC(F)F)c2)C(F)(F)F)cc2cc(C(=O)NC3CC3)c(Cl)cc21 (stereo not shown) [Compound 278] | 100 | 100 | 3.32 |  |  |  | 90 |  |  |  |  | 
CCn1c(C(=O)NC(c2cccc(C(F)(F)F)c2)C(F)(F)F)c(C#N)c2cc(C(=O)NC3(C#N)CC3)c(Cl)cc21 (stereo not shown) [Compound 279, 6-chloro-3-cyano-N5-(1-cyanocyclopropyl)-1-ethyl-N2-{2,2,2-trifluoro-1-[3-(trifluoromethyl)phenyl]ethyl}-1H-indole-2,5-dicarboxamide] |  | 100 |  |  |  |  | 100 | 100 | 3.45 | 3.45 |  | 
N#CC1(NC(=O)c2cc3cc(C(=O)NC(c4cccc(C(F)(F)F)c4)C(F)(F)F)n(Cc4ccccc4)c3cc2Cl)CC1 (stereo not shown) [Compound 284] | 100 | 100 |  |  |  |  | 100 |  |  |  | 4.07 | 
CCOCn1c(C(=O)NC(c2cccc(C(F)(F)F)c2)C(F)(F)F)cc2cc(C(=O)NC3(C#N)CC3)c(Cl)cc21 (stereo not shown) [Compound 287] | 100 | 100 |  |  |  |  | 100 |  |  |  | 3.70 | 
CCn1c(C(=O)NC(c2ccc(F)c(F)c2)C(F)(F)F)cc2cc(C(=O)NC3(C#N)CC3)c(C)cc21 (stereo not shown) [Compound 292] | 100 | 100 |  |  |  |  | 100 |  |  |  | 3.48 | 
CCn1c(C(=O)NC(c2cc(F)cc(Cl)c2)C(F)(F)F)cc2cc(C(=O)NC3(C#N)CC3)c(C)cc21 (stereo not shown) [Compound 293] | 100 | 100 |  |  |  |  | 100 |  |  |  | 3.85 | 
CCn1c(C(=O)NC(c2cc(Cl)c(F)c(Cl)c2)C(F)(F)F)cc2cc(C(=O)NC3CC3)c(C)cc21 (stereo not shown) [Compound 296] | 100 | 100 |  |  |  |  | 100 |  |  |  | 4.16 | 
CCn1c(C(=O)NC(c2ccc(Cl)c(Cl)c2)C(F)(F)F)cc2cc(C(=O)NC3CC3)c(C)cc21 (stereo not shown) [Compound 297] | 100 | 100 |  |  |  |  | 100 |  |  |  | 3.99 | 
CCn1c(C(=O)NC(c2cc(F)cc(Cl)c2)C(F)(F)F)cc2cc(C(=O)NC3CC3)c(C)cc21 (stereo not shown) [Compound 298] | 100 | 100 |  |  |  |  | 100 |  |  |  | 3.77 | 
N#CC1(NC(=O)c2cc3cc(C(=O)NC(c4cccc(C(F)(F)F)c4)C(F)(F)F)n(C4CC4)c3cc2Cl)CC1 (stereo not shown) [Compound 302, 6-chloro-N^5-(1-cyanocyclopropyl)-1-cyclopropyl-N^2-{2,2,2-trifluoro-1-[3-(trifluoromethyl)phenyl]ethyl}-1H-indole-2,5-dicarboxamide] |  | 100 |  |  |  |  | 100 | 100 | 3.6 | 3.59 |  | 
CCn1c(C(=O)NC(c2ccc(F)c(C(F)(F)F)c2)C(F)(F)F)cc2cc(C(=O)NC3CCC3)c(C)cc21 (stereo not shown) [Compound 304] | 100 | 100 |  |  |  |  |  |  |  |  | 4.24 | 100
CCn1c(C(=O)NC(c2ccc(F)c(C(F)(F)F)c2)C(F)(F)F)cc2cc(C(=O)NC(C)C)c(C)cc21 (stereo not shown) [Compound 305] | 100 | 100 |  |  |  |  | 100 |  |  |  | 4.16 | 
CCn1c(C(=O)NC(c2ccc3c(c2)OC(F)(F)O3)C(F)(F)F)cc2cc(C(=O)NC3(C#N)CC3)c(C)cc21 (stereo not shown) [Compound 308] | 100 | 100 |  |  |  |  | 90 |  |  |  | 3.80 | 
CCN(CC)C(=O)c1cc2cc(C(=O)NC(c3ccc(F)c(Cl)c3)C(F)(F)F)n(CC)c2cc1C (stereo not shown) [Compound 320] | 100 | 100 |  |  |  |  | 100 |  |  |  | 4.35 | 
